Laboratory results: PubChem BioAssay AID2060900 (Molecular Pharmacology Branch, DTP, NCI, 2025)

Test system: 521955-158-R2-J5-PDC complex spheroids, viability
Assay: Anticancer human tumor 521955-158-R2-J5-PDC patient-derived pancreatic carcinoma cell line growth inhibition [RAS]
Settings: for IC50: curve of first compound; for viability, T/C: stronger effect = lower value
Summary of the method: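 Tumour cells grown as complex spheroids with HUVEC endothelial cells and mesenchymal stem cells, treated with RAS pathway inhibitor combinations. Each agent spans half-log steps from near clinical Cmax, or 10 microM where Cmax is unknown.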
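Further: compound exposure lasted seven days before the viability read.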
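Wherever viability, T/C is given: spheroids also contain HUVEC endothelial cells and mesenchymal stem cells as stroma.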

C[C@@H](NC(=O)c1ncnc(N)c1Cl)c1ncc(C(=O)Nc2cc(C(F)(F)F)c(Cl)cn2)s1 + C#Cc1c(F)ccc2cc(O)cc(-c3ncc4c(N5CC6CCC(C5)N6)nc(OCC56CCCN5CC(F)C6)nc4c3F)c12 gave an IC50 (second compound 0.0316 µM) of over 10000 nM, an IC50 (second compound 0.1 µM) of 531 nM and an IC50 (second compound 0.316 µM) of 3290 nM. For the same molecule, the IC50 (second compound 1 µM) was 493 nM, the IC50 (second compound 3.16 µM) was under 31.6 nM and the IC50 (second compound 10 µM) was under 31.6 nM. It also gave a viability, T/C (second compound 0.0316 µM, first compound 0.0316 µM) of 57.8%, a viability, T/C (second compound 0.0316 µM, first compound 0.1 µM) of 58.3% and a viability, T/C (second compound 0.0316 µM, first compound 0.316 µM) of 59.8%. The viability, T/C (second compound 0.0316 µM, first compound 1 µM) was 54.3%, the viability, T/C (second compound 0.0316 µM, first compound 3.16 µM) was 57.4% and the viability, T/C (second compound 0.0316 µM, first compound 10 µM) was 46%. It also gave a viability, T/C (second compound 0.1 µM, first compound 0.0316 µM) of 65.5%, a viability, T/C (second compound 0.1 µM, first compound 0.1 µM) of 58.3% and a viability, T/C (second compound 0.1 µM, first compound 0.316 µM) of 46.9%. For the same molecule, the viability, T/C (second compound 0.1 µM, first compound 1 µM) was 47.3%, the viability, T/C (second compound 0.1 µM, first compound 3.16 µM) was 57.2% and the viability, T/C (second compound 0.1 µM, first compound 10 µM) was 42.3%. The viability, T/C (second compound 0.316 µM, first compound 0.0316 µM) was 62%, the viability, T/C (second compound 0.316 µM, first compound 0.1 µM) was 55.7% and the viability, T/C (second compound 0.316 µM, first compound 0.316 µM) was 58.4%. For the same molecule, the viability, T/C (second compound 0.316 µM, first compound 1 µM) was 53.2%, the viability, T/C (second compound 0.316 µM, first compound 3.16 µM) was 52.4% and the viability, T/C (second compound 0.316 µM, first compound 10 µM) was 37.9%. For the same molecule, the viability, T/C (second compound 1 µM, first compound 0.0316 µM) was 61.2%, the viability, T/C (second compound 1 µM, first compound 0.1 µM) was 48.4% and the viability, T/C (second compound 1 µM, first compound 0.316 µM) was 47.5%. It also gave a viability, T/C (second compound 1 µM, first compound 1 µM) of 51%, a viability, T/C (second compound 1 µM, first compound 3.16 µM) of 45.3% and a viability, T/C (second compound 1 µM, first compound 10 µM) of 33.5%. For the same molecule, the viability, T/C (second compound 3.16 µM, first compound 0.0316 µM) was 51.3%, the viability, T/C (second compound 3.16 µM, first compound 0.1 µM) was 49.1% and the viability, T/C (second compound 3.16 µM, first compound 0.316 µM) was 36.6%. The viability, T/C (second compound 3.16 µM, first compound 1 µM) was 54.4%, the viability, T/C (second compound 3.16 µM, first compound 3.16 µM) was 43.5% and the viability, T/C (second compound 3.16 µM, first compound 10 µM) was 32.7%. The viability, T/C (second compound 10 µM, first compound 0.0316 µM) was 41.1%, the viability, T/C (second compound 10 µM, first compound 0.1 µM) was 38.2% and the viability, T/C (second compound 10 µM, first compound 0.316 µM) was 37.3%. It also gave a viability, T/C (second compound 10 µM, first compound 1 µM) of 37.5%, a viability, T/C (second compound 10 µM, first compound 3.16 µM) of 35.1% and a viability, T/C (second compound 10 µM, first compound 10 µM) of 22.8%.
